{
  "source": "paper PMC7432838",
  "about": "“A Curcumin Analog Exhibits Multiple Biologic Effects on the Pathogenesis of Alzheimer’s Disease and Improves Behavior, Inflammation, and β-Amyloid Accumulation in a Mouse Model” (International Journal of Molecular Sciences, 2020)",
  "key": {"[1]": {"system": "human neuroglioma H4-APP751 stable cell line", "parameters": "method as in PMID 20622013", "conditions": "15 and 20 μM, no cytotoxicity; cited from earlier work"}, "[2]": {"experiment": "Pharmacokinetic study after oral administration in SD rats", "format": "in vivo, rat", "conditions": "SD rats, oral 150 mg/kg", "method": "In order to evaluate the bioavailability of curcumin and its analog TML-6, pharmacokinetic studies were commissioned and conducted by the Development Center for Biotechnology (DCB, Taipei, Taiwan). The kinetics of curcumin and TML-6 in blood were collected at 0.25, 0.5, 1, 2, 4, 6, 8 and 10 h after oral administration of curcumin and TML-6 at the dose of 150 mg/kg in male Sprague–Dawley Rats."}, "[3]": {"system": "Aβ in 3xTg AD mouse brain", "experiment": "Immunofluorescence staining of Aβ in brain of 3xTg AD mice", "format": "in vivo", "conditions": "150 mg/kg/day in diet for four months", "method": "(§1) The triplex transgenic mouse model (3xTg-AD, APP Swedish, MAPT P301L, and PSEN1 M146V) was adopted as the AD model and bred at the laboratory animal center of National Cheng Kung University (NCKU), Tainan, Taiwan. The mice were housed in a room maintained on a 12 h light–dark cycle and fed ad libitum. Six-month old 3xTg-AD mice were used for animal experiments. Experimental procedures for handling the mice were in accordance with the guidelines of the Institutional Animal Care and Use Committee (IACUC) of NCKU. These mice develop plaques and tangles pathology. Aβ deposition is progressive, and deposition appears as early as nine months for triplex-Tg mice. […] The quantity of the diet consumed by the mice was determined daily. The concentration of curcumin and TML-6 in the diet was determined to be around 1.20 mg/g of diet after assaying by HPLC by the Development Center for the Biotechnology (DCB), Taipei, Taiwan.\n(§2) Mice were anesthetized using pentobarbital (60 mg/kg, intravenous) and then transcardial perfusion was performed with 0.01 M PBS (pH 7.4). […] Images were captured by the TissureFAXS microscopy system and positive signals were quantified by TissueQuest software module (TissueGnostic, Vienne, Austria)."}, "[4]": {"system": "Aβ40 production in N2a/APPswe stable cells", "experiment": "Aβ40 ELISA of culture medium", "format": "cell-based, mouse", "conditions": "different doses up to 20 µg/mL, 24 h", "method": "(§3) Extracellular levels of soluble Aβ40 and Aβ42 were determined by LEGEND MAX™ β-Amyloid x-40 and X-42 ELISA Kit (Biolegend, San Diego, CA, USA). Overexpression of the APP Swedish mutation (APPswe) in the N2a neuronblastoma cell line was called the N2a/APPswe cell line. N2a/APPswe stable cells were seeded at 8 × 10^5 cells in 6 cm dishes. After overnight incubation, the cells were treated with curcumin and TML-6 for 24 h. […] The culture supernatant was collected and centrifuged at 1500× g at 4 °C for 5 min to remove cells. The culture supernatants from various treatments were conducted to examine the Aβ levels according to the manufacturer’s instructions. The samples for the detection of soluble Aβ levels were diluted in the supernatant at a 1:10 dilution for this experiment. Levels of soluble Aβ were detected by measuring the OD at 620 nm (Molecular Devices, San Jose, CA, USA). The calculation of Aβ levels was based on the standard curves of Aβ40 and Aβ42, respectively."}, "[5]": {"system": "Aβ42 production in N2a/APPswe stable cells", "experiment": "Aβ42 ELISA of culture medium", "format": "cell-based, mouse", "conditions": "different doses up to 20 µg/mL, 24 h", "method": "as §3"}, "[6]": {"system": "phospho-NF-κB in Huh-7 cells", "experiment": "Western blotting of phosphorylated NF-κB", "format": "cell-based, human", "conditions": "10 µg/mL, 24 h, vs medium control", "method": "(§4) After cells were seeded and treated with curcumin and TML-6 for 24 h, cells were washed with ice-cold PBS (Phosphate Buffered Saline) and lysed with 100 μL of RIPA cell lysis buffer (Pierce Biotechnology, Rockford, IL, USA) supplemented with protease and phosphatase inhibitors (Roche Diagnostics, Mannheim, Germany). Cell lysates were further cleaned by centrifugation at 14,000 rpm at 4 °C for 15 min. Protein concentration was determined using a Bradford assay (Bio-Rad, Hercules, CA, USA). For Western blot analysis, 20 μg of each sample was prepared for SDS-PAGE (SDS Poly-acrylamide-gel-electrophoresis) and denatured at 95 ℃ for 10 min. The samples prepared from total lysates were loaded and separated by SDS-PAGE (8% or 10%), and then transferred to PVDF membranes (pore size 0.45 μm; PerkinElmer, Waltham, MA, USA) by semi-dry transfer cell (Bio-Rad). After blocking with 5% skim milk in PBS-T (0.1% Tween-20), the membranes were hybridized with primary antibodies at 1/1000 dilution at 4 °C overnight. On the next day, membranes were washed with PBS-T followed by incubation with HRP-conjugated anti-mouse or anti-rabbit secondary antibody (DAKO, Santa Clara, CA, USA) at 1/5000 dilution at room temperature for 1 h as appropriate. […]"}, "3xTg AD transgenic mice": {"system": "3xTg AD transgenic mice", "experiment": "Morris water maze test in 3xTg AD transgenic mice", "format": "in vivo, mouse", "conditions": "150 mg/kg/day in diet for four months; six-month-old 3xTg AD mice; vs vehicle control", "method": "The triplex transgenic mouse model (3xTg-AD, APP Swedish, MAPT P301L, and PSEN1 M146V) was adopted as the AD model and bred at the laboratory animal center of National Cheng Kung University (NCKU), Tainan, Taiwan. The mice were housed in a room maintained on a 12 h light–dark cycle and fed ad libitum. Six-month old 3xTg-AD mice were used for animal experiments. Experimental procedures for handling the mice were in accordance with the guidelines of the Institutional Animal Care and Use Committee (IACUC) of NCKU. These mice develop plaques and tangles pathology. Aβ deposition is progressive, and deposition appears as early as nine months for triplex-Tg mice. The AD transgenic mice were fed with the control diet (Laboratory Rodent Diet 5001, LabDiet, St. Louis, MO, USA), the control diet plus traditional curcumin (150 mg/kg), or the control diet plus TML-6 (150 mg/kg) for four months. Diets were stored at 4 °C and were added to mouse cage twice a week. The quantity of the diet consumed by the mice was determined daily. The concentration of curcumin and TML-6 in the diet was determined to be around 1.20 mg/g of diet after assaying by HPLC by the Development Center for the Biotechnology (DCB), Taipei, Taiwan.\nFor assessing spatial learning and memory, the Morris water maze was used as we described before. […] The time taken to reach the platform was recorded as escape latency."}, "Huh-7 cells": {"system": "Huh-7 cells", "experiment": "Cytotoxicity assay by Cell Counting Kit-8 (CCK-8)", "format": "cell-based, human", "conditions": "Huh-7, 24 h", "method": "The cytotoxicity assay was performed using the Cell Counting Kit-8 (CCK-8, Sigma). We dissolved 0.0524 g of TML-6 (molecular weight is 523.62 g/mol) in 10 mL DMSO to obtain TML-6 stock at 10 mM for cell line study. […] Briefly, Huh-7 cells were seeded overnight in 96-well plates at 5000 cells/well and then subjected to traditional curcumin or TML-6 treatment for 24 h. At each time point, a CCK-8 solution (0.25 mg/mL) was added to the medium in each well for an additional 4 h incubation, and absorbance was measured at 570 nm using an ELISA reader."}, "[7]": {"system": "phospho-mTOR in Huh-7 cells", "experiment": "Western blotting of phospho-mTOR", "format": "cell-based, human", "conditions": "Huh-7, 24 h", "method": "After cells were seeded and treated with curcumin and TML-6 for 24 h, cells were washed with ice-cold PBS (Phosphate Buffered Saline) and lysed with 100 μL of RIPA cell lysis buffer (Pierce Biotechnology, Rockford, IL, USA) supplemented with protease and phosphatase inhibitors (Roche Diagnostics, Mannheim, Germany). Cell lysates were further cleaned by centrifugation at 14,000 rpm at 4 °C for 15 min. Protein concentration was determined using a Bradford assay (Bio-Rad, Hercules, CA, USA). For Western blot analysis, 20 μg of each sample was prepared for SDS-PAGE (SDS Poly-acrylamide-gel-electrophoresis) and denatured at 95 ℃ for 10 min. The samples prepared from total lysates were loaded and separated by SDS-PAGE (8% or 10%), and then transferred to PVDF membranes (pore size 0.45 μm; PerkinElmer, Waltham, MA, USA) by semi-dry transfer cell (Bio-Rad). After blocking with 5% skim milk in PBS-T (0.1% Tween-20), the membranes were hybridized with primary antibodies at 1/1000 dilution at 4 °C overnight. On the next day, membranes were washed with PBS-T followed by incubation with HRP-conjugated anti-mouse or anti-rabbit secondary antibody (DAKO, Santa Clara, CA, USA) at 1/5000 dilution at room temperature for 1 h as appropriate. Finally, the images were captured by Amersham Imager 600 (GE Healthcare Life Sciences, Marlborough, MA, USA) after being developed using the chemiluminescent HRP substrate (Millipore, Bedford, MA, USA). The primary antibodies used in this study were anti-APP, anti-NF-κB (Cell Signaling Technology, Danvers, MA, USA), anti-Apo E, anti-p-mTOR (Abcam, Cambridge, MA, USA)."}, "[8]": {"system": "Iba-1 (microglial activation marker) in 3xTg AD mouse hippocampus", "experiment": "Immunofluorescence staining of Iba-1 in brain of 3xTg AD mice", "format": "in vivo", "conditions": "150 mg/kg/day in diet for four months", "method": "as §1, §2"}, "[9]": {"experiment": "Water solubility (preformulation, preliminary studies)", "format": "physicochemical", "conditions": "unformulated", "method": "The active pharmaceutical ingredients of TML-6 were synthesized and physico-chemical properties were characterized by SinoPharm Pharmaceutical Company (SPT), Tainan, Taiwan. Preformulation studies on the solubility of TML-6 were conducted by Value Pharmaceutical Services (VPS) Company, Jiansu, China. All the data in this study were conducted using unformulated TML-6. Formulation to optimize the solubility and permeability of TML-6 is under development for toxicological studies."}, "N2a/APPswe stable cells": {"system": "N2a/APPswe stable cells", "experiment": "Cell viability/morphology by micrographs during Aβ ELISA treatment", "format": "cell-based, mouse", "conditions": "24 h", "method": "as §3"}, "[10]": {"system": "APP (amyloid precursor protein) in Huh-7 cells", "experiment": "Western blotting of APP protein expression", "format": "cell-based, human", "conditions": "5 µg/mL, 24 h, vs medium control", "method": "as §4"}, "[11]": {"system": "rat neuroblastoma B104-APP751 stable cell line", "parameters": "method as in PMID 20622013", "conditions": "15 and 20 μM, no cytotoxicity; cited from earlier work"}},
  "data": [
    {"substance": "curcumin [reference compound]", "values": [
      {"measurement": "Aβ40 and Aβ42 levels (in words)", "setting": "[1]", "result": "significantly decreased"},
      {"measurement": "blood concentrations at each time point", "setting": "[2]", "result": "not detectable"},
      {"measurement": "Aβ expression in brain vs vehicle (in words)", "setting": "[3]", "result": "trend of reduction but without significant differences"},
      {"measurement": "Aβ40 level vs control (in words)", "setting": "[4]", "result": "increased to levels higher than those of the control"},
      {"measurement": "Aβ42 level vs control (in words)", "setting": "[5]", "result": "increased to levels higher than those of the control"},
      {"measurement": "decrease of phosphorylated NF-κB level", "setting": "[6]", "result": 35, "unit": "%"},
      {"measurement": "learning behavior in Morris water maze (in words)", "setting": "3xTg AD transgenic mice", "result": "no significant difference"},
      {"measurement": "IC50", "setting": "Huh-7 cells", "result": 60, "unit": "µM"},
      {"measurement": "cytotoxicity (CCK-8)", "setting": "Huh-7 cells; up to highest concentration of 20 µg/mL", "result": "no obvious cytotoxicity"},
      {"measurement": "phospho-mTOR suppression (Western blot, in words)", "setting": "[7]", "result": "suppressed in a dose-dependent manner"},
      {"measurement": "Iba-1 expression vs vehicle (in words)", "setting": "[8]", "result": "no significant change"},
      {"measurement": "water solubility", "setting": "[9]", "result": "less than 0.1 mg/mL"},
      {"measurement": "highest dose, at which cytotoxicity was seen (micrographs)", "setting": "N2a/APPswe stable cells", "result": 20, "unit": "µg/mL"},
      {"measurement": "reduction of APP protein expression level", "setting": "[10]", "result": 30, "unit": "%"},
      {"measurement": "Aβ40 and Aβ42 levels (in words)", "setting": "[11]", "result": "significantly decreased"}
    ]}
  ]
}
